Source: patent US20060252710A1, “6-11 Bridged oxime erythromycin derivatives” (priority 2005, published 2006)
Converted amounts (≈) assume the structure as drawn. Read-outs that look alike come from different tables or passages of the source.

What was measured:
Assay in all cases: MIC by micro-dilution method
Format in all cases: cell-based
H. influenzae 33929 = conditions: Haemophilus influenzae
Protocol: (§1) Antibacterial activity studies may be carried out using suitable assays as are known in the art. Susceptibility tests can be used to quantitatively measure the in vitro activity of an antimicrobial agent against a given bacterial isolate. Compounds are tested for in vitro antibacterial activity by a micro-dilution method. Minimal Inhibitory Concentration (MIC) is determined in 96 well microtiter plates utilizing the appropriate Mueller Hinton Broth medium (CAMHB) for the observed bacterial isolates. Antimicrobial agents are serially diluted (2-fold) in DMSO to produce a concentration range from about 64 μg/ml to about 0.03 μg/ml. The diluted compounds (2 μl/well) are then transferred into sterile, uninoculated CAMHB (0.2 mL) by use of a 96 fixed tip-pipeting station. The inoculum for each bacterial strain is standardized to 5×10^5 CFU/mL by optical comparison to a 0.5 McFarland turbidity standard. The plates are inoculated with 10 μI/well of adjusted bacterial inoculum. The 96 well plates are covered and incubated at 35+/−2° C. for 24 hours in ambient air environment. Following incubation, plate wells are visually examined by Optical Density measurement for the presence of growth (turbidity). The lowest concentration of an antimicrobial agent at which no visible growth occurs is defined as the MIC.
(§2) All in vitro testing follows the guidelines described in the Approved Standards M7-A4 protocol, published by the National Committee for Clinical Laboratory Standards (NCCLS).
(§3) The values in the table are minimum inhibition concentration (MIC) and are expressed as ug/mL. Assays for MIC are described above.

S. aureus 27660 = conditions: Staphylococcus aureus
Protocol: as §1, §2, §3

S. aureus 29213 = conditions: Staphylococcus aureus
Protocol: as §1, §2, §3

S. aureus 33591 = conditions: Staphylococcus aureus
Protocol: as §1, §2, §3

S. pneumoniae 700906 = conditions: Streptococcus pneumoniae
Protocol: as §1, §2, §3

S. pneumoniae 7701 = conditions: Streptococcus pneumoniae
Protocol: as §1, §2, §3

S. pyogenes 1323 = conditions: Streptococcus pyogenes
Protocol: as §1, §2, §3

S. pyogenes 2912 = conditions: Streptococcus pyogenes
Protocol: as §1, §2, §3

[1] = Table IV, species from U.S. Pat. No. 6,878,691 and US 2004/0053861, read-out: minimum inhibition concentration (MIC) H. influenzae 33929
[2] = Table IV, species from U.S. Pat. No. 6,878,691 and US 2004/0053861, read-out: minimum inhibition concentration (MIC) S. aureus 27660
[3] = Table IV, species from U.S. Pat. No. 6,878,691 and US 2004/0053861, read-out: minimum inhibition concentration (MIC) S. aureus 29213
[4] = Table IV, species from U.S. Pat. No. 6,878,691 and US 2004/0053861, read-out: minimum inhibition concentration (MIC) S. aureus 33591
[5] = Table IV, species from U.S. Pat. No. 6,878,691 and US 2004/0053861, read-out: minimum inhibition concentration (MIC) S. pneumoniae 700906
[6] = Table IV, species from U.S. Pat. No. 6,878,691 and US 2004/0053861, read-out: minimum inhibition concentration (MIC) S. pneumoniae 7701
[7] = Table IV, species from U.S. Pat. No. 6,878,691 and US 2004/0053861, read-out: minimum inhibition concentration (MIC) S. pyogenes 1323
[8] = Table IV, species from U.S. Pat. No. 6,878,691 and US 2004/0053861, read-out: minimum inhibition concentration (MIC) S. pyogenes 2912
[9] = Table V, compounds of this invention, read-out: minimum inhibition concentration H. influenzae 33929
[10] = Table V, compounds of this invention, read-out: minimum inhibition concentration S. aureus 27660
[11] = Table V, compounds of this invention, read-out: minimum inhibition concentration S. aureus 29213
[12] = Table V, compounds of this invention, read-out: minimum inhibition concentration S. aureus 33591
[13] = Table V, compounds of this invention, read-out: minimum inhibition concentration S. pneumoniae 700906
[14] = Table V, compounds of this invention, read-out: minimum inhibition concentration S. pneumoniae 7701
[15] = Table V, compounds of this invention, read-out: minimum inhibition concentration S. pyogenes 1323
[16] = Table V, compounds of this invention, read-out: minimum inhibition concentration S. pyogenes 2912

Compound	MIC (H. influenzae 33929; [1])	MIC (S. aureus 27660; [2])	MIC (S. aureus 29213; [3])	MIC (S. aureus 33591; [4])	MIC (S. pneumoniae 700906; [5])	MIC (S. pneumoniae 7701; [6])	MIC (S. pyogenes 1323; [7])	MIC (S. pyogenes 2912; [8])	MIC (H. influenzae 33929; [9])	MIC (S. aureus 27660; [10])	MIC (S. aureus 29213; [11])	MIC (S. aureus 33591; [12])	MIC (S. pneumoniae 700906; [13])	MIC (S. pneumoniae 7701; [14])	MIC (S. pyogenes 1323; [15])	MIC (S. pyogenes 2912; [16])
CC[C@H]1OC(=O)[C@H](C)C(=O)[C@H](C)[C@@H](O[C@@H]2O[C@H](C)C[C@H](N(C)C)[C@H]2O)[C@@]2(C)C[C@@H](C)/C(=N\C(C)=O)[C@H](C)[C@@H](OC/C(=N\OCc3nccc4ccccc34)CO2)[C@]1(C)O [Compound A1]	8 µg/mL (≈ 9.7 µM)	0.13 µg/mL (≈ 0.158 µM)	0.25 µg/mL (≈ 0.303 µM)	> 64 µg/mL	0.25 µg/mL (≈ 0.303 µM)	0.5 µg/mL (≈ 0.606 µM)	0.5 µg/mL (≈ 0.606 µM)	8 µg/mL (≈ 9.7 µM)								
CC[C@H]1OC(=O)[C@H](C)C(=O)[C@H](C)[C@@H](O[C@@H]2O[C@H](C)C[C@H](N(C)C)[C@H]2O)[C@@]2(C)C[C@@H](C)/C(=N\C(C)=O)[C@H](C)[C@@H](OC/C(=N\OCc3ccc4nccnc4c3)CO2)[C@]1(C)O [Compound A2]	16 µg/mL (≈ 19.4 µM)	0.25 µg/mL (≈ 0.303 µM)	0.5 µg/mL (≈ 0.605 µM)	> 64 µg/mL	0.25 µg/mL (≈ 0.303 µM)	0.5 µg/mL (≈ 0.605 µM)	1 µg/mL (≈ 1.21 µM)	16 µg/mL (≈ 19.4 µM)								
CC[C@H]1OC(=O)[C@H](C)C(=O)[C@H](C)[C@@H](O[C@@H]2O[C@H](C)C[C@H](N(C)C)[C@H]2O)[C@@]2(C)C[C@@H](C)/C(=N\C(C)=O)[C@H](C)[C@@H](OC/C(=N\OCc3cn4ccncc4n3)CO2)[C@]1(C)O [Compound A3]	8 µg/mL (≈ 9.82 µM)	0.25 µg/mL (≈ 0.307 µM)	0.25 µg/mL (≈ 0.307 µM)	> 64 µg/mL	0.13 µg/mL (≈ 0.16 µM)	2 µg/mL (≈ 2.45 µM)	16 µg/mL (≈ 19.6 µM)	32 µg/mL (≈ 39.3 µM)								
CC[C@H]1OC(=O)[C@H](C)[C@@H](OC2C[C@@](C)(OC)[C@@H](OC(C)=O)[C@H](C)O2)[C@H](C)[C@@H](O[C@@H]2O[C@H](C)C[C@H](N(C)C)[C@H]2O)[C@@]2(C)C[C@@H](C)C(=O)[C@H](C)[C@@H](OCC(=Cc3cnc4ccccc4c3)CO2)[C@]1(C)O (stereo partly shown) [Compound A4]	> 64 µg/mL					8 µg/mL (≈ 8.38 µM)	64 µg/mL (≈ 67 µM)	64 µg/mL (≈ 67 µM)								
CC[C@H]1OC(=O)[C@H](C)[C@@H](O)[C@H](C)[C@@H](O[C@@H]2O[C@H](C)C[C@H](N(C)C)[C@H]2O)[C@@]2(C)C[C@@H](C)C(=N)[C@H](C)[C@@H](OC/C(=N\OCc3ccccc3)CO2)[C@]1(C)O [Compound A5]	> 64 µg/mL			> 64 µg/mL		2 µg/mL (≈ 2.73 µM)	64 µg/mL (≈ 87.2 µM)	> 64 µg/mL								
CC[C@H]1OC(=O)[C@H](C)[C@@H](OC(=O)Cc2cccnc2)[C@H](C)[C@@H](O[C@@H]2O[C@H](C)C[C@H](N(C)C)[C@H]2O)[C@@]2(C)C[C@@H](C)/C(=N\C(C)=O)[C@H](C)[C@@H](OC/C(=C\C=C\c3ccccc3)CO2)[C@]1(C)O [Compound A6]	> 64 µg/mL	1 µg/mL (≈ 1.12 µM)	1 µg/mL (≈ 1.12 µM)	16 µg/mL (≈ 18 µM)	8 µg/mL (≈ 8.99 µM)	1 µg/mL (≈ 1.12 µM)	2 µg/mL (≈ 2.25 µM)	8 µg/mL (≈ 8.99 µM)								
CC[C@H]1OC(=O)[C@H](C)C(=O)[C@H](C)[C@@H](O[C@@H]2O[C@H](C)C[C@H](N(C)C)[C@H]2O)[C@@]2(C)C[C@@H](C)C(=O)[C@H](C)[C@@H](OC/C(=N\OCc3ccc4nc(N)sc4c3)CO2)[C@]1(C)O [Compound B1]									2 µg/mL (≈ 2.48 µM)	≤ 0.06 µg/mL	≤ 0.06 µg/mL	> 64 µg/mL	1 µg/mL (≈ 1.24 µM)	≤ 0.06 µg/mL	0.25 µg/mL (≈ 0.311 µM)	4 µg/mL (≈ 4.97 µM)
CC[C@H]1OC(=O)[C@@](C)(F)C(=O)[C@H](C)[C@@H](O[C@@H]2O[C@H](C)C[C@H](N(C)C)[C@H]2O)[C@@]2(C)C[C@@H](C)/C(=N\C(C)=O)[C@H](C)[C@@H](OC/C(=N\OCc3ccc4onc(N)c4c3)CO2)[C@]1(C)O [Compound B2]									2 µg/mL (≈ 2.36 µM)	≤ 0.06 µg/mL	0.125 µg/mL (≈ 0.147 µM)	> 64 µg/mL	0.5 µg/mL (≈ 0.59 µM)	0.125 µg/mL (≈ 0.147 µM)	0.5 µg/mL (≈ 0.59 µM)	2 µg/mL (≈ 2.36 µM)
CC[C@H]1OC(=O)[C@H](C)C(=O)[C@H](C)[C@@H](O[C@@H]2O[C@H](C)C[C@H](N(C)C)[C@H]2O)[C@@]2(C)C[C@@H](C)C(=O)[C@H](C)[C@@H](OC/C(=N\OCc3ccc4oc(N)nc4c3)CO2)[C@]1(C)O [Compound B3]									2 µg/mL (≈ 2.54 µM)	≤ 0.06 µg/mL	≤ 0.06 µg/mL	32 µg/mL (≈ 40.6 µM)	0.25 µg/mL (≈ 0.317 µM)	0.125 µg/mL (≈ 0.158 µM)	0.5 µg/mL (≈ 0.634 µM)	4 µg/mL (≈ 5.07 µM)
CC[C@H]1OC(=O)[C@H](C)C(=O)[C@H](C)[C@@H](O[C@@H]2O[C@H](C)C[C@H](N(C)C)[C@H]2O)[C@@]2(C)C[C@@H](C)/C(=N\C(C)=O)[C@H](C)[C@@H](OC/C(=N\OCc3ccc4oc(N)nc4c3)CO2)[C@]1(C)O [Compound B4]									4 µg/mL (≈ 4.82 µM)	0.125 µg/mL (≈ 0.151 µM)	0.125 µg/mL (≈ 0.151 µM)	32 µg/mL (≈ 38.6 µM)	0.125 µg/mL (≈ 0.151 µM)	0.125 µg/mL (≈ 0.151 µM)	0.5 µg/mL (≈ 0.602 µM)	1 µg/mL (≈ 1.2 µM)
